Experimental data from article PMC8456950, “Structure‐Guided Design of G‐Protein‐Coupled Receptor Polypharmacology” (Angewandte Chemie (International Ed. in English), 2021).

System: unilaterally 6-OHDA lesioned rats
Assay: Rotation test in unilaterally 6-OHDA lesioned rats (model of Parkinsonism)
Format: in vivo
Conditions: apomorphine 1 mg/kg IP, 6-OHDA lesioned rats
Procedure: Evaluation of compound 30 in rodent model of Parkinsonism. Male Sprague Dawley rats (150-200 g) were housed in air-conditioned rooms (12h dark/light cycle) at 20°C and a humidity of 53%. Experiments were performed in agreement with the European Communities Council Directive of 24 November 1986 (86/609/EEC) on the ethical use of animals and were approved by the local ethical committee (Stockholm North Ethical Committee, N105/16). Rats were anesthetized with ketamine (100 mg/kg, IP; Intervet)/xylazine (5 mg/kg, IP; Bayer, Kiel, Germany), pretreated with desipramine (25 mg/kg, IP; Sigma, St Louis, MO, USA)/pargyline (5 mg/kg, IP; Sigma), placed in a stereotaxi c instrument and injected with 6-OHDA (2.5 µl of a 5mg/ml solution; Sigma) into the median forebrain bundle (MFB) of the right hemisphere (AP -2.8 mm, ML -2.0 mm and V -9.0 mm). Two weeks after the unilateral 6-OHDA lesion, rats were injected with apomorphine (1 mg/kg, IP; Sigma) and their contralateral rotations were measured to determine the degree of nigrostriatal denervation. Four weeks after surgery, rats that were divided into two group according to the number of apomorphine-induced rotations. The rats were treated either with DMSO(17%)/saline (n=6) or compound 30 (n=7, 24 mg/kg, IP) dissolved in DMSO(17%)/saline. The number of rotations was calculated automatically with Noldus EthoVision XT11. 5 Software for 30 min following the drug administration. The two […]
groups were then compared by using a Mann-Whitney test. A second set of independent experiments using a new set of rats were carried out using the same protocol to assess the involvement of the D2R in the observed effect. In this case, rats were divided into four groups according to the number of apomorphine-induced rotations. The rats were treated with either DMSO(17%)/saline (n=6), raclopride (n=7, 2mg/kg, IP) dissolved in DMSO(17%)/saline, compound 30 (n=7, 24 mg/kg, IP) dissolved in DMSO(17%)/saline or the combination of raclopride (30 min pretreatment) and compound 30 (n=7). The rotation test was then performed for 30 min. […]

For `CN1CCc2cccc3c2[C@H]1Cc1ccc(O)c(O)c1-3` [apomorphine, reference compound], the “rotational behaviour induced by control D2R agonist” value was “contralateral rotational behaviour”.
